The record followed here is patent publication US20180094248A1, “Necroptosis Signaling as a Therapeutic Target for Alzheimer's Disease” (Arizona Board of Regents on behalf of Arizona State …, priority 2016, published 2018).

Assay [1] concerns primary cortical neurons isolated from APP/PS1 and wild type mice. Kind of assay: GFP fluorescence in live AAV-GFP infected primary cortical neurons treated with Nec1S or vehicle. The class given is cell-based, mouse. The following applies: DIV 15; 10 μM at DIV 7 and 11; APP/PS1-veh vs the other three groups incl. APP/PS1-Nec1S. How it is done:
At DIV 1, we infected primary cortical neurons isolated from APP/PS1 and wild type mice with an adeno-associated virus (AAV) expressing the green fluorescent protein (GFP) under the neuronal promotor CamKII. At DIV 7 and 11, neurons from the two genotypes were treated with 10 μM Nec1S or vehicle. We then measured GFP fluorescence in live cells as an indication of live neurons.
Primary neuronal cultures—For the GFP experiments: Primary neurons were isolated from APP/PS1 and NonTg Po pups. The tissue was then dissociated in Neurobasal media (Thermo Fisher Scientific) and spun down for 3 minutes at 5,000 g at 4° C. The supernatant was discarded and the pellet was re-suspended in 1 ml of Neurobasal media supplemented with B27 (Thermo Fisher Scientific). An equal volume per each sample was seeded into a Poly-D-Lysine-coated (10 mg/mL, Sigma-Aldrich) black 96-well tissue culture plate. […] Neurons were treated for a total of 15 days and the GFP fluorescence was measured every 4 days. […] All fluorescent measurements (excitation 488 nm, emission 509 nm) were performed using the Synergy HT multi-mode microplate reader with the Gen5 software (BioTek, Winooski, Vt.). The reader was pre-heated to 37° C. to maintain optimal conditions for the neurons during the measurements. […]

In assay [2] the test system is phosphorylated MLKL. Kind of assay: Western blot of total and phosphorylated MLKL in brains of Nec-1S treated 5xFAD mice. The class given is in vivo, mouse. The following applies: 8-month-old 5xFAD mice; 10 mg/kg i.p. once, then 0.5 mg/ml in drinking water for 21 days; vs vehicle. How it is done: Specifically, mice receive a single intraperitoneal injection of 10 mg/kg Nec1s after which they were given Nec1S in their drinking water at a concentration of 0.5 mg/ml for 21 days.
Protein Extraction: Human temporal gyms tissue samples (0.1 g/sample) were extracted in sequential buffers, from lower to higher detergent strength. Briefly, the samples were homogenized in TBS (50 mM Tris-HCl, pH 7.4, 175 mM NaCl, 5 mM EDTA, 1 mM N-ethyl-maleimide) containing protease inhibitors (Roche) and phosphatase inhibitors (Millipore). The protein extract was centrifuged at 120,000 g for 30 minutes at 4° C. The resulting supernatant represented the TBS soluble fraction. Pellets were homogenized in TBS/1% Triton X-100 and spun at 1000 g for 10 minutes at 4° C. The supernatant represented the Triton soluble fraction. Pellets were washed in TBS/1M sucrose and then homogenized in RIPA buffer. […]
Western blot and ELISA: The proteins were run using reducing conditions in precast gels (Thermo Fisher Scientific) and transferred to nitrocellulose membranes (iBlot, Thermo Fisher Scientific). […] The blots were then washed with TBS-T, and imaged/quantified using a LICOR Odyssey CLx (LI-COR Biosciences) attached to a Dell computer (OptiPlex 7010) running Windows 7 and Image Studio (version 1.0.11, LI-COR Biosciences). […]
For orientation: A western blot detects proteins with antibodies after separation by electrophoresis.

For `CN1C(=O)NC(Cc2c[nH]c3c(Cl)cccc23)C1=O` (centres unmarked) [Nec1S, 5-((7-chloro-1 H-indol-3-yl)methyl)-3-methylimidazolidine-2,4-dione], the “GFP fluorescence in live cells (indication of live neurons)” value in assay [1] is reported as “APP/PS1-veh group had lower GFP levels compared to the other three groups”. The pMLKL/MLKL ratio entry in assay [2] is recorded as “lower pMLKL/MLKL ratio”.
